Reference: ChEMBL document CHEMBL1129576, “Nucleosides and nucleotides. 158. 1-(3-C-ethynyl-beta-D-ribo-pentofuranosyl)-cytosine, 1-(3-C-ethynyl-beta-D-ribo-pentofuranosyl)uracil, and their nucleobase analogues as new potential multifunctional antitumor nucleosides with a broad spectrum of activity” (J Med Chem, 1996)

Columns and labels:
KB = assay: In vitro tumor cell growth inhibitory activity against human nasopharyngeal KB cell lines; format: functional, cell-based
L1210 = assay: In vitro tumor cell growth inhibitory activity against mouse leukemia L1210 cell lines.; format: functional, cell-based
Mus musculus [1] = assay: In vivo tumor cell growth inhibitory activity of H-81 tumor xenograft of stomach in nude mice at a concentration of 15 mg/kg for 15 days; format: functional
Mus musculus [2] = assay: In vivo tumor cell growth inhibitory activity against AZ-521 tumor xenograft of stomach in nude mice at a concentration of 15 mg/kg for 15 days; format: functional
Mus musculus [3] = assay: In vivo tumor cell growth inhibitory activity against DLD-1 tumor xenograft of […] in nude mice at a concentration of 15 mg/kg for 15 days; format: functional
Mus musculus [4] = assay: In vivo tumor cell growth inhibitory activity against H-31 cells tumor xenograft of breast in nude mice at a concentration of 15 mg/kg for 15 days; format: functional
Mus musculus [5] = assay: In vivo tumor cell growth inhibitory activity against Hucc-T1 cells tumor xenograft of bile duct in nude mice at a concentration of 15 mg/kg for 15 days; format: functional
Mus musculus [6] = assay: In vivo inhibitory activity against BxPC-3 tumor xenograft of pancreas in nude mice at a concentration of 15 mg/kg for 15 days; format: functional
Mus musculus [7] = assay: In vivo tumor cell growth inhibitory activity against JRC-11 cells tumor xenograft of renal in nude mice at a concentration of 15 mg/kg for 15 days; format: functional
Mus musculus [8] = assay: In vivo tumor cell growth inhibitory activity against KM12C tumor xenograft of […] in nude mice at a concentration of 15 mg/kg for 15 days; format: functional
Mus musculus [9] = assay: In vivo inhibitory activity against PAN-12 tumor xenograft of pancreas in nude mice at a concentration of 15 mg/kg for 15 days; format: functional
Mus musculus [10] = assay: In vivo tumor cell growth inhibitory activity of CO-3 tumor xenograft of […] in nude mice at a concentration of 15 mg/kg for 15 days; format: functional
A-375 = assay: In vitro tumor cell growth inhibitory activity against Human melanoma cell lines A375; format: functional, cell-based
A-431 = assay: In vitro tumor cell growth inhibitory activity against Human […] A431 cell lines; format: functional, cell-based
COLO 320DM = assay: In vitro tumor cell growth inhibitory activity against i Human colon (adenocarcinoma) cell lines. COLO 320DM; format: functional, cell-based
HCT-15 = assay: In vitro tumor cell growth inhibitory activity against HCT-15; format: functional, cell-based; conditions: Homo sapiens
HOS = assay: In vitro tumor cell growth inhibitory activity against Human osteosarcoma cell lines. HOS; format: functional, cell-based
HT-1080 = assay: In vitro tumor cell growth inhibitory activity against Human fibrosarcoma HT1080 cell lines.; format: functional, cell-based
[11] = test system: KATO III stomach cancer cell line; assay: In vitro tumor cell growth inhibitory activity of Human stomach (adenocarcinoma) cell lines. KATO-III; format: functional, cell-based
KK-47 cell line = assay: In vitro tumor cell growth inhibitory activity against Human bladder carcinoma cell lines. kK-47; format: functional, cell-based
MDA-MB-231 = assay: In vitro tumor cell growth inhibitory activity against Human breast (adenocarcinoma) cell lines. […]; format: functional, cell-based
MKN-28 = assay: In vitro tumor cell growth inhibitory activity against Human stomach (adenocarcinoma) cell lines. MKN-28; format: functional, cell-based
MCF7 = assay: In vitro tumor cell growth inhibitory activity against Human breast (adenocarcinoma) cell lines. MCF-7; format: functional, cell-based
MG-63 = assay: In vitro tumor cell growth inhibitory activity against Human osteosarcoma cell lines MG-63.; format: functional, cell-based
Lu-65 = assay: In vitro tumor cell growth inhibitory activity against Human lung large-cell carcinoma Lu-65 cell lines.; format: functional, cell-based
Mus musculus [12] = assay: In vivo inhibitory activity against Hucc-T1 cells tumor xenograft of bile duct in nude mice at a concentration of 0.25 mg/kg for 10 days; format: functional
Mus musculus [13] = assay: In vivo inhibitory activity against JRC-11 cells tumor xenograft of renal in nude mice at a concentration of 0.25 mg/kg for 10 days; format: functional
Mus musculus [14] = assay: In vivo tumor cell growth inhibitory activity against CO-3 tumor xenograft of colon in nude mice at a concentration of 0.25 mg/kg for 10 days; format: functional
Mus musculus [15] = assay: In vivo inhibitory activity against DLD-1 tumor xenograft of colon in nude mice at a concentration of 0.25 mg/kg for 10 days; format: functional
Mus musculus [16] = assay: In vivo inhibitory activity against H-31 cells tumor xenograft of breast in nude mice at a concentration of 0.25 mg/kg for 10 days; format: functional
Mus musculus [17] = assay: In vivo tumor cell growth inhibitory activity against KM12C tumor xenograft of […] in nude mice at a concentration of 0.25 mg/kg for 10 days; format: functional
Mus musculus [18] = assay: In vivo tumor cell growth inhibitory activity against NUGC-3 tumor xenograft of stomach in nude mice at a concentration of 0.25 mg/kg for 10 days; format: functional
Mus musculus [19] = assay: In vivo tumor cell growth inhibitory activity of CO-3 tumor xenograft of […] in nude mice at a concentration of 0.25 mg/kg for 10 days; format: functional
Mus musculus [20] = assay: In vivo tumor cell growth inhibitory activity of H-81 tumor xenograft of stomach in nude mice at a concentration of 0.25 mg/kg for 10 days; format: functional
NAKAJIMA = assay: In vitro tumor cell growth inhibitory activity against Human stomach (adenocarcinoma) cell lines. h) NAKAJIMA; format: functional, cell-based
NCI-H417 = assay: In vitro tumor cell growth inhibitory activity against Human lung small-cell carcinoma cell NCI-H-417; format: functional, cell-based
NUGC-4 = assay: In vitro tumor cell growth inhibitory activity of Human stomach (adenocarcinoma) cell lines. NUGC-4; format: functional, cell-based
PC10 = assay: In vitro tumor cell growth inhibitory activity against Human lung (adenocarcinoma) cell lines PC-10; format: functional, cell-based
PC-8 = assay: In vitro tumor cell growth inhibitory activity against Human lung (adenocarcinoma) cell lines. PC-8; format: functional, cell-based
PC-9 = assay: In vitro tumor cell growth inhibitory activity against Human lung (adenocarcinoma) cell lines PC-9; format: functional, cell-based
[21] = In vitro tumor cell growth inhibitory activity against Human lung squamous-cell carcinoma cell lines QG-95; format: functional
QG-56 = assay: In vitro tumor cell growth inhibitory activity against Human lung squamous-cell carcinoma cell linesQG-56; format: functional, cell-based
QG-90 = assay: In vitro tumor cell growth inhibitory activity against Human lung small-cell carcinoma cell lines. QG-90; format: functional, cell-based
QG-96 = assay: In vitro tumor cell growth inhibitory activity against Human lung small-cell carcinoma cellb) QG-96; format: functional, cell-based
SW48 = assay: In vitro tumor cell growth inhibitory activity against i Human colon (adenocarcinoma) cell lines. SW-48; format: functional, cell-based
SW480 = assay: In vitro tumor cell growth inhibitory activity against i Human colon (adenocarcinoma) cell lines. SW-480; format: functional, cell-based
ST-KM-1 = assay: In vitro tumor cell growth inhibitory activity against Human stomach (adenocarcinoma) cell linesST-KM; format: functional, cell-based
T-24 = assay: In vitro tumor cell growth inhibitory activity against Human bladder carcinoma cell lines. T24; format: functional, cell-based
fLS = assay: In vitro tumor cell growth inhibitory activity of Human stomach (adenocarcinoma) cell lines. fLS; format: functional, cell-based
YMB-1-E = assay: In vitro tumor cell growth inhibitory activity against Human breast (adenocarcinoma) cell lines YMB-1-E.; format: functional, cell-based
Mus musculus [22] = assay: In vivo inhibitory activity against PAN-12 tumor xenograft of pancreas in nude mice at a concentration of 0.25 mg/kg for 10 days; format: functional
PANC-1 = assay: In vitro tumor cell growth inhibitory activity against Human pancreas (adenocarcinoma) cell lines. PANC-1; format: functional, cell-based
NCI-H82 (Homo sapiens) = assay: In vitro tumor cell growth inhibitory activity against Human lung small-cell carcinoma cellc) NCI-H-82
[23] = test system: MIA PaCa-2 (Homo sapiens); assay: In vitro tumor cell growth inhibitory activity against Human pancreas (adenocarcinoma) cell Mia-PaCa-2
[24] = In vitro tumor cell growth inhibitory activity against Human stomach (adenocarcinoma) cell lines STSA-1
MKN-45 (Homo sapiens) = assay: In vitro tumor cell growth inhibitory activity against Human stomach (adenocarcinoma) cell lines. MKN-45

C#C[C@@]1(O)[C@@H](CO)O[C@@H](n2cc(C)c(=O)[nH]c2=O)[C@@H]1O
IC50 (KB): > 300000 nM | IC50 (L1210): > 300000 nM

C#C[C@@]1(O)[C@@H](CO)O[C@@H](n2cnc3c(N)ncnc32)[C@@H]1O
IC50 (KB): 830 nM | IC50 (L1210): 690 nM

C#CC1(O)[C@@H](CO)O[C@@H](n2cc(F)c(=O)[nH]c2=O)[C@@H]1O (single isomer, unassigned)
IC50 (KB): 1400 nM | IC50 (L1210): 2500 nM

C#CC1(O)[C@@H](CO)O[C@@H](n2cnc3c(O)nc(N)nc32)[C@@H]1O (single isomer, unassigned)
IC50 (KB): > 300000 nM | IC50 (L1210): > 300000 nM

O=c1[nH]cc(F)c(=O)[nH]1 [FLUOROURACIL]
Inhibition ratio (Mus musculus [1]): 83% | Inhibition ratio (Mus musculus [2]): 25% | Inhibition ratio (Mus musculus [3]): 50% | Inhibition ratio (Mus musculus [4]): 68% | Inhibition ratio (Mus musculus [5]): 1% | Inhibition ratio (Mus musculus [6]): 50% | Inhibition ratio (Mus musculus [7]): 69% | Inhibition ratio (Mus musculus [8]): 59% | Inhibition ratio (Mus musculus [9]): 40% | Inhibition ratio (Mus musculus [10]): 49%

C#C[C@]1(O)[C@@H](CO)OC(n2cc(F)c(N)nc2=O)[C@@H]1O (single isomer, unassigned)
IC50 (KB): 460 nM | IC50 (L1210): 530 nM

C#C[C@]1(O)[C@@H](CO)O[C@@H](n2ccc(N)nc2=O)[C@@H]1O
IC50 (A-375): 26 nM | IC50 (A-431): 33 nM | IC50 (COLO 320DM): 20 nM | IC50 (HCT-15): 8.2 nM | IC50 (HOS): 1000 nM | IC50 (HT-1080): 73 nM | IC50 [11]: 31 nM | IC50 (KK-47 cell line): 120 nM | IC50 (KB): 28 nM | IC50 (L1210): 16 nM | IC50 (MDA-MB-231): 24 nM | IC50 (MKN-28): 210 nM | IC50 (MCF7): 69 nM | IC50 (MG-63): 150 nM | IC50 (Lu-65): 32 nM | Inhibition ratio (Mus musculus [12]): 55% | Inhibition ratio (Mus musculus [13]): 73% | Inhibition ratio (Mus musculus [14]): 88% | Inhibition ratio (Mus musculus [15]): 78% | Inhibition ratio (Mus musculus [16]): 76% | Inhibition ratio (Mus musculus [17]): 83% | Inhibition ratio (Mus musculus [18]): 84% | Inhibition ratio (Mus musculus [19]): 80% | Inhibition ratio (Mus musculus [20]): 92% | IC50 (NAKAJIMA): 170 nM | IC50 (NCI-H417): 43 nM | IC50 (NUGC-4): 24 nM | IC50 (PC10): 160 nM | IC50 (PC-8): 90 nM | IC50 (PC-9): 110 nM | IC50 [21]: 210 nM | IC50 (QG-56): 45 nM | IC50 (QG-90): 130 nM | IC50 (QG-96): 390 nM | IC50 (SW48): > 1900 nM | IC50 (SW480): 260 nM | IC50 (ST-KM-1): 47 nM | IC50 (T-24): 28 nM | IC50 (fLS): 21 nM | IC50 (YMB-1-E): 160 nM | Inhibition ratio (Mus musculus [22]): 75% | IC50 (PANC-1): > 1900 nM | IC50 (NCI-H82 (Homo sapiens)): 120 nM | IC50 [23]: 15 nM | IC50 [24]: 150 nM | IC50 (MKN-45 (Homo sapiens)): 8.8 nM
